Measurements published in patent US12589087B2, “Enantiomer selective action on neurotransmission” (The Board of Trustees of the Leland Stanford Junior …, priority 2021, dated 2026).

Legend:
[1] = test system: mouse cerebral synaptosomes; test: Synaptosomal neurotransmitter uptake assay; format: cell-based; details: 10 μM substrate; for transport into synaptosomes: 37° C.
Method: To each tube, 5 μL of a test compound solution (final concentration 10 μM) in Buffer KRP or Buffer KRP alone were added. Samples were incubated at 4° C. or 37° C. for 1, 10, or 30 min and then immediately centrifuged and washed twice by resuspension-centrifugation with Buffer S (0.5 mL). Resulting pellets were resuspended in 170 μL of 0.1% aqueous formic acid and mixed with 330 μL of ACN.
96-well plate experiments: 250 μL aliquots of the synaptosome suspension were transferred to two 0.8-mL 96 well plates, one on ice (0° C. samples only) and one in a thermoblock (37° C. samples only), and equilibrated for 10 min. 5 μL of a test compound (0.5 mM; final concentration: 10 μM) in Buffer KRP or Buffer KRP blank were added 10, 20 or 30 min before the incubation termination. “0 min” samples were prepared by placing the test compound solution in a separate pre-chilled V-shape bottom 2-mL 96 well plate; at the end of incubation 200 μL aliquots of all samples were transferred to the 2-mL 96 well plate and centrifuged (2,500 g for 15 min at 4° C.) immediately. The resulting pellets were rinsed with Buffer KRP, followed by centrifugation, twice, then resuspended in 200 μL of 60% ACN containing 2.5 μM Glu-d5 as internal standard and stored at −80° C. until analysis.
Synaptosome uptake and high potassium-induced release assays were performed as described in Example 1. Uptake assays used 250 μL aliquots of the synaptosome suspension transferred to a pre-chilled 0.8 mL 96 well plate. 5 μL of a test compound solution (0.5 mM; final concentration: 10 μM to compare directly to our previous work was added to each well and incubated at 0° C. or 37° C. After 10, 20 or 30 min, samples were chilled on ice and immediately sedimented (2,500 g for 15 min at 4° C.) and washed with Buffer S (0.5 mL, ×2). Resulting pellets were resuspended in 200 μL of 60% ACN containing 5 μM GABA-d6 and stored at −80° C. until analysis. Potassium-induced release assay used 500 μL aliquots of the synaptosome suspension transferred to pre-chilled microcentrifuge tubes. 2.5 μL of a test compound solution (20 mM; final concentration: 100 μM) in Buffer KRP was added to each tube and incubated for 15 min at 37° C., briefly chilled on ice, and then immediately sedimented (8,000 g for 4 min at 4° C.) and washed with Buffer KRP, followed by centrifugation, twice. The resulting pellets were resuspended in 500 μL of Buffer KRP or Buffer K-KRP and incubated for 5, 10 or 15 min at 37° C., sedimented (8,000 g for 4 min at 4° C.), and washed with Buffer KRP. Resulting pellets were resuspended in 400 μL of 60% ACN containing 2.5 μM GABA-d6 as internal standard and stored at −80° C. until analysis.

[2] = test system: mGluR1; test: radioligand binding assay, cerebellum membranes; details: mGluR1, rat; 100 μM
Method: (§1) Nonspecific AMPA, kainate and NMDA binding assays were performed by Eurofins Discovery (Cerep) using rat cerebral cortex membranes and radiolabeled [^3H]AMPA, [^3H]kainic acid and [^3H]CGP 39653, respectively. All compounds were tested at a single concentration of 100 uM in triplicate. mGluR1, mGluR2, mGluR5 and GABAB binding assays were performed by Eurofins Discovery. mGluR1 assay was performed using rat cerebellum membranes and radiolabeled [^3H]quisqalic acid. mGluR2 assay was performed using recombinant Chem-1 cells and [^3H]LY341495. mGluR5 and GABAB binding assays were performed using recombinant CHO-K1 cells and […], respectively. All compounds were tested at a single concentration of 100 uM in triplicate.
All receptor assays were performed exactly as described in Example 1. Functional assays of all GABAA, NMDA (GluN2A-GluN2D) and AMPA (GluA2) receptor subunits were performed by SB Drug Discovery as a part of their CNS discovery panel using FLIPR technology. All compounds were tested at 7 concentrations in triplicate and EC50/IC50 was determined where applicable. Functional GABAB assay was performed by Eurofins Discovery (Cerep) using Ca^2+-dependent fluorimetry in RBL cells expressing human GABAB (B1/B2) receptor. All compounds were tested at a single concentration of 100 uM in triplicate. […]

[3] = test system: GABAB nonsel; test: radioligand binding inhibition assay; details: rat, 100 μM
Method: as §1

[4] = test system: C57Bl/6 mice; format: in vivo; details: for distance moved in the novel cage: single 100, 300, or 900 mg/kg IP, dose- and time-dependent
Method: Dosing: (R)-2MeGlu (30, 100, 300, or 900 mg/kg), (S)-2MeGlu (30, 100, 300, or 900 mg/kg), rac-2MeGln (30, 100, 300, or 900 mg/kg) and vehicle (PBS) were administered at 10 ml/kg IP dosing volume. Three mice were dosed once with the assigned drug (100, 300, or 900 mg/kg) or vehicle and immediately placed in a new cage for novel cage observation. Subsequently, six mice were dosed once with the assigned drug (30 or 100 mg/kg) or vehicle and tested by SHIRPA, activity chamber, and then hot plate tests.
The mouse was dosed and immediately placed in the center of a clean, Innovive disposable rat cage with bedding (dimensions: 17″L×13.4″W×7.8″H) and allowed to move freely while being tracked automatically. Mice were monitored with Ethovision XT tracking software for the distance moved and average velocity during the 60-minute trial. They were returned to their home cage after the test. A new cage was used for each mouse.
Exploratory behavioral tests were performed exactly as previously described by us using 2-month-old C57Bl/6 male mice, Example 1. First, we assessed safety and tolerability of acute exposure to 4APA enantiomers in 22 mice by novel cage observation at 100, 300, or 900 mg/kg IP compared to vehicle (PBS) IP (n=3 or 4 mice per group without sample calculation, based on our previous study. Next, we evaluated 24 drug naïve mice with a 23-measure battery of neurologic dysfunction in mice (SHIRPA) (Rogers et al., 2001), automated activity chamber assessment, and hot plate latency acutely following 30 or 100 mg/kg IP compared to vehicle IP (n=4 or 5 mice per group). No exclusion criteria were predetermined and no randomization was performed to allocate subjects in the study.

SMILES | transport into synaptosomes [1] | % of radioligand binding inhibition [2] [%] | % of radioligand binding inhibition [3] [%] | mortality after single dose ([4]; mouse, in vivo) | distance moved in the novel cage [4] | synaptosomal uptake, faster than the R enantiomer ([1]; temperature-dependent uptake)
C[C@@](N)(CCC(=O)O)C(=O)O [(R)-2MeGlu, (R)-2-methylglutamic acid] | transported into synaptosomes | −3 | 5 | one mouse died | significantly decreased | –
C[C@](N)(CCC(=O)O)C(=O)O [(S)-2MeGlu, (S)-2-methylglutamic acid] | transported into synaptosomes | 6 | 5 | – | significantly decreased | approximately 3 fold
